Values quoted from earlier work in patent EP2738198A1, “Enzymatic synthesis of polyamide in aqueous mini-emulsion” (Henkel AG & Co. KGaA, priority 2012, dated 2014).

Conditions: alcohol CnH2n+1OH corresponding to the alkyl group of the di(alkyl) sebacate, data from Handbook of Chemistry and Physics 86th Edition
In the case of `CCCCCCO` [n 6], the “Partial Solubility of CnH2n+1OH in water” value is given as 7900 µg/mL.
In the case of `CCCCCCCCO` [n 8], the “Partial Solubility of CnH2n+1OH in water” value is listed as 300 µg/mL.
In the case of `CCO` [n 2], the “Partial Solubility of CnH2n+1OH in water” value is given as “∞”.
